{"source": "patent US7208157B2", "about": "“Proteolysis targeting chimeric pharmaceutical” (California Institute of Technology, priority 2000, dated 2007)", "key": {"[1]": {"molecular_target": "T1, MetAP-2 (Homo sapiens, UniProt P50579)", "T1 sequence (P50579 whole entry, species assumed)": "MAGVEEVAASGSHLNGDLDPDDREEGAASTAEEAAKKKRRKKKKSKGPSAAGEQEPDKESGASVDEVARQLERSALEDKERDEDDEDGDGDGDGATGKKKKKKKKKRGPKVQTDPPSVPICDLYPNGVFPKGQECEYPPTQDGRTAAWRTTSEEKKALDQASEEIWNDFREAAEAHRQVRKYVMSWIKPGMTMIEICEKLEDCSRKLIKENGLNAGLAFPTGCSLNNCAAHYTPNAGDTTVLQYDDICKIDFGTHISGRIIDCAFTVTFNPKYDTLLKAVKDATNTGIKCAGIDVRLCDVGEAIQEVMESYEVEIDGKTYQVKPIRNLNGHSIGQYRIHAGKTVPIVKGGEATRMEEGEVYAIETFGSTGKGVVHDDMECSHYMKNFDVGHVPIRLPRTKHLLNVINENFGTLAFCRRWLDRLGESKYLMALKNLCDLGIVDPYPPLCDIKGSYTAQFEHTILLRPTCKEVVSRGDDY", "experiment": "Degradation experiments with Xenopus egg extracts", "format": "biochemical, Xenopus laevis", "protocol": "Extracts from unfertilized Xenopus laevis eggs were prepared the day of the experiment, as described (See Murray, A. W., Methods Cell Biol., 3:581–605 (1991)). The MetAP-2-Protac-1 mixture (4 μl of 9 μM MetAP-2 plus 50 μMProtac-1) or MetAP-2 alone was added to […] of extract in addition to OVA (10 μM final), constitutively active IKK (IKK-EE, 0.4 μg), and okadaic acid (OA; 10 μM final). N-acetyl-leu-leu-norleucinal (LLnL, 50 μM final), epoxomicin (10 μM final), or DMSO vehicle were added to the indicated concentrations to inhibit degradation by the proteasome. The protease inhibitors chymostatin, pepstatin, and leupeptin ([…] final concentration) also were added to the extracts. Reactions were incubated for the indicated times at room temperature and terminated by adding 50 μl of SDS/PAGE loading buffer. Samples were evaluated by Western blotting as described above.\nHowever, the key issues are whether Protac-1 can specifically activate MetAP-2 degradation, and whether targeted degradation can be achieved by endogenous ubiquitin/proteasome pathway components at typical intracellular concentrations. To address these questions, MetAP-2 was preincubated with Protac-1 to allow the complexes to form, and then added the mixture to Xenopus egg extract supplemented with IKK-EE (See Mercurio, F., Zhu, et al., Science,. 278:860–66. (1997)), OA, and OVA. The addition of IKK-EE and OA was intended to sustain phosphorylation of the IkBa peptide moiety of Protac-1, whereas OVA was added to prevent the further linkage of Protac-1 to MetAP-2. […] Moreover, addition of both IKK-EE and OA was required for optimal degradation of MetAP-2-Protac-1. Similarly, we have seen specific turnover of the MetAP-2-Protac-1complex, but not free MetAP-2, in three independent experiments. […] MetAP-2 turnover was very specific, in that maximal degradation required agents predicted to sustain phosphorylation of the LkBa peptide."}, "[2]": {"molecular_target": "T1, MetAP-2", "T1 sequence (P50579 110-478 limits assumed)": "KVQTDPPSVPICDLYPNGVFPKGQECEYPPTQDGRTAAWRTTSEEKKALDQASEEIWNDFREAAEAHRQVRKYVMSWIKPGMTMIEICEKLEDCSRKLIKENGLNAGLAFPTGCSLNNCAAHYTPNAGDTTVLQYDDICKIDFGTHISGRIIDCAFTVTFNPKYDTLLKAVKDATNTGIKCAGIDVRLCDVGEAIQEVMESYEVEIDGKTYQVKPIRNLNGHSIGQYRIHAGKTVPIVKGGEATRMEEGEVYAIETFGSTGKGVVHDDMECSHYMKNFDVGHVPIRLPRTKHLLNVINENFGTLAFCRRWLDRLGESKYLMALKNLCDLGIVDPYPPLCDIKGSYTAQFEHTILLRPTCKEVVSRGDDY", "settings": "covalent, active site His-231; cited from earlier work"}, "[3]": {"tested_on": "MetAP-2", "experiment": "In vitro ubiquitination of MetAP-2 by SCFβ-TRCP beads with E1, E2 (Cdc34), ubiquitin, ATP", "format": "biochemical", "settings": "1 hr at 30° C.; 47-kDa and 67-kDa MetAP-2 preparations; Western blot", "procedure": "Pellets from cells transfected with vector, pFLAG-β-TRCP, or pFLAG-Cul-1 were vortexed for 10 sec, then incubated on ice for 15 min. After centrifugation at 13,000 rpm in an Eppendorf microfuge (Germany) for 5 min at 4° C., the supernatant was added to 20 μl of FLAG M2 beads (Sigma), which were washed with lysis buffer three times before immu-noprecipitation. Lysates were incubated with the beads on a rotator for 2 hr at 4° C., followed by one wash with buffer A (25 mM Hepes buffer, pH 7.4/0.01% Triton X-100/150 mM NaCl) and one wash with buffer B (the same buffer without the Triton X-100). […] After the addition of ligand, the beads were rotated at room temperature for 1 hr. The beads were washed once each with buffers A and B. After centrifugation at 13,000 rpm in an Eppendorf microfuge (Germany) for 1 min, half of the bead and supernatant fractions, representing bound and unbound, respectively, were evaluated by Western blotting as described above. For ubiquitination reactions, 4 μl of 18 μM MetAP-2, 4 μl of 100 μM Protac-1, 0.5 ml of 0.1 μg/μl purified mouse E1, 1 μl of 0.5 μg/μl human Cdc34 E2, and 1 μl of 25 mM ATP were added to 20 μl (packed volume) of washed FLAG-M2 beads. […] SDS/PAGE loading buffer was added to terminate reactions, which were evaluated by Western blotting as described above. […]"}, "[4]": {"molecular_target": "T2, SCF^β-TRCP (Homo sapiens, UniProt Q9Y297)", "experiment": "Binding assay: recruitment of MetAP-2 to SCFβ-TRCP beads", "parameters": "made in house", "settings": "MetAP-2 (18 μM) preincubated with Protac-1 (100 μM) 45 min; beads 1 hr room temperature; vs control beads", "protocol": "293T cell pellets were lysed with 200 μl of lysis buffer (25 mMTris/Cl, pH 7.5/150 mM NaCl/0.1% Triton X-100/5 mM NaF/0.05 mM EGTA/1 mM PMSF). Pellets from cells transfected with vector, pFLAG-β-TRCP, or pFLAG-Cul-1 were vortexed for 10 sec, then incubated on ice for 15 min. After centrifugation at 13,000 rpm in an Eppendorf microfuge (Germany) for 5 min at 4° C., the supernatant was added to 20 μl of FLAG M2 beads (Sigma), which were washed with lysis buffer three times before immu-noprecipitation. […] The beads were washed once each with buffers A and B. After centrifugation at 13,000 rpm in an Eppendorf microfuge (Germany) for 1 min, half of the bead and supernatant fractions, representing bound and unbound, respectively, were evaluated by Western blotting as described above. […] SDS/PAGE loading buffer was added to terminate reactions, which were evaluated by Western blotting as described above.\nBefore testing the activity of Protac-1, an approach to isolate and assay SCF^β-TRCP complexes in vitro as described (See Tan, P., et al., Mol. Cell, 3:327–33 (1999)) was first adapted. […] The beads and supernatant then were evaluated by Western blot analysis for the presence of MetAP-2. […]"}, "[5]": {"molecular_target": "T1, MetAP-2", "experiment": "MetAP-2-Protac-1 coupling assay (SDS/PAGE, anti-MetAP-2 immunoblot)", "format": "binding", "settings": "MetAP-2 incubated with increasing Protac-1, or free IPP (50 μM) or free OVA (50 μM), room temperature 45 min", "protocol": "MetAP-2 (9 μM) was incubated with increasing concentrations of Protac-1 (dissolved in water) at room temperature for 45 min. Reactions were supplemented with SDS loading dye, fractionated on an SDS/10% polyacryl-amide gel, transferred onto a nitrocellulose membrane, and immunoblotted with rabbit polyclonal anti-MetAP-2 antiserum (Zymed). Enhanced chemiluminescence was performed by using Amersham Pharmacia detection reagents.\nThe IkBalpha-OVA chimera, Protac-1 (FIG. 1B), was synthesized as described above. […] A Western blot analysis was performed with anti-MetAP-2 antiserum. […] The specificity of MetAP-2 interaction with Protac-1 in vitro was also tested."}, "[6]": {"molecular_target": "T2, SCF^β-TRCP", "experiment": "Control ubiquitination of IKK-phosphorylated glutathione S-transferase-IkBalpha by SCFβ-TRCP immunoprecipitates", "format": "biochemical", "parameters": "made in house; host or cells: 293T cells, transient transfection, anti-FLAG immunoprecipitation", "settings": "anti-FLAG SCFβ-TRCP immunoprecipitates; data not shown", "from_the_text": "Before testing the activity of Protac-1, an approach to isolate and assay SCF^β-TRCP complexes in vitro as described (See Tan, P., et al., Mol. Cell, 3:327–33 (1999)) was first adapted. Lysates from 293T cells transfected with plasmids that encoded β-TRCP and Cul-1 proteins tagged with the FLAG epitope at the N terminus were immunoprecipitated with anti-FLAG antibody-conjugated resin. Immunoblot analysis confirmed that all components of SCF^β-TRCP were present in the anti-FLAG immunoprecipitate, including Skp 1, Hrt 1, and the transfected FLAG Cul-1 and FLAG β-TRCP (data not shown). Furthermore, control experiments confirmed that these immunoprecipitates promoted ubiquitination of IKK-phosphorylated glutathione S-transferase-LkBalpha in a manner that was inhibited by the IPP and Protac-1 (data not shown; ref. 7). To determine whether Protac-1 could recruit MetAP-2 to SCF^β-TRCP , MetAP-2 (18 μM) was first incubated with Protac-1 (100 μM) for 45 mm at room temperature. After isolation of SCF^β-TRCP complexes, the anti-FLAG beads were supplemented with the MetAP-2-Protac-l mixture and rotated at room temperature for 1 hr. The beads and supernatant then were evaluated by Western blot analysis for the presence of MetAP-2. […]"}}, "note": "Entries after “also recorded” stand apart in the source; their conditions may differ. Where a SMILES comes first, the peptide text is derived from it. [ ]: non-standard residue; d: D form. Nle = CCCC[C@H](N)C(=O)O"}
{"molecule": "CCCC[C@@H](C=O)NC(=O)[C@H](CC(C)C)NC(=O)[C@H](CC(C)C)NC(C)=O", "note": "[LLnL, N-acetyl-leu-leu-norleucinal] (Ac-Leu-Leu-[Nle]-aldehyde)", "values": [{"measurement": "effect on degradation of MetAP-2-Protac-1", "setting": "[1]; LLnL 50 μM final added to extract", "result": "attenuated"}]}
{"molecule": "CC[C@H](C)[C@H](NC(=O)[C@H]([C@@H](C)CC)N(C)C(C)=O)C(=O)N[C@H](C(=O)N[C@@H](CC(C)C)C(=O)[C@@]1(C)CO1)[C@@H](C)O", "note": "[epoxomicin]", "values": [{"measurement": "effect on degradation of MetAP-2-Protac-1", "setting": "[1]; epoxomicin 10 μM final added to extract", "result": "attenuated"}]}
{"molecule": "CO[C@@H]1[C@H](OC(=O)/C=C/C=C/C=C/C=C/C(=O)O)CC[C@]2(CO2)[C@H]1[C@@]1(C)O[C@@H]1CC=C(C)C", "note": "[fumagillin]", "values": [{"measurement": "inhibition of MetAP-2", "setting": "[2]", "result": "inhibit MetAP-2 by covalently binding His-231 in the active site"}]}
{"molecule": "IkBa peptide-suberate-Gly-ovalicinol [Protac-1]", "values": [{"measurement": "ubiquitination of MetAP-2 by SCFβ-TRCP", "setting": "[3]", "result": "specifically elicited ubiquitination of MetAP-2 by SCF^β-TRCP; also recorded: ubiquitinated in the presence of Protac-1"}, {"measurement": "recruitment of MetAP-2 to SCFβ-TRCP beads", "setting": "[4]", "result": "specifically recruited MetAP-2 to SCF^β-TRCP"}, {"measurement": "degradation of MetAP-2-Protac-1 complex", "setting": "[1]; Xenopus egg extract with IKK-EE, OA and OVA, room temperature, MetAP-2 alone not degraded", "result": "mostly degraded after 30 mm; also recorded: degraded by proteasomes in Xenopus extracts"}, {"measurement": "formation of MetAP-2-Protac-1 complex (upper band / doublet on anti-MetAP-2 Western blot)", "setting": "[5]", "result": "specifically conjugated to the OVA moiety of Protac-1 in a concentration-dependent manner"}, {"measurement": "formation of MetAP-2-Protac-1 complex (upper band / doublet on anti-MetAP-2 Western blot)", "setting": "[5]; listed as Protac", "result": "MetAP-2 binds Protac specifically and in a concentration-dependent manner"}, {"measurement": "inhibition of ubiquitination of IKK-phosphorylated GST-IkBalpha", "setting": "[6]", "result": "inhibited"}]}
